In patent US9247759B2, “Identification of human T2R receptors that respond to bitter compounds that elicit the bitter taste in compositions, and the use thereof in assays to identify compounds that inhibit (block) bitter taste in compositions and use thereof” (SENOMYX, INC., priority 2007, dated 2016):

These compounds were tested against hT2R8 (Homo sapiens (Human), UniProt Q9NYW2) (assay: hT2R8 antagonist high-throughput FLIPR assay, stable cell line with G16g44, agonist andrographolide). Conditions: Table A; read-out: hT2R8 IC50.
hT2R8, sequence (Q9NYW2 whole entry): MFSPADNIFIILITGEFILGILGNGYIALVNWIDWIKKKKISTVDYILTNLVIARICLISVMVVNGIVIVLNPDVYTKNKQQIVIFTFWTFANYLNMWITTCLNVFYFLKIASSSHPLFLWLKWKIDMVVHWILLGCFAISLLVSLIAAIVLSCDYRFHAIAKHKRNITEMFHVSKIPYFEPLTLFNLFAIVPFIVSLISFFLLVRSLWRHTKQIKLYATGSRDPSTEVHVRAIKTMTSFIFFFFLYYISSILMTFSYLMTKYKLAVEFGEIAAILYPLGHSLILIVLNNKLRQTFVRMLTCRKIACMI
Format: cell-based
How it was run: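 HEK293 cells stably co-expressing hT2R8 and chimeric G16g44, read on FLIPR. Test compounds added together with andrographolide (200 μM), which drives the receptor to 70–80% of maximal activity; antagonism seen as reduced agonist response.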
Work on `Cc1noc(C)c1Cn1cc(NC(=O)c2ccccc2)cn1` [Example 4-24, N-(1-((3,5-dimethylisoxazol-4-yl)methyl)-1H-pyrazol-4-yl)benzamide] yielded an IC50 of 2.62 µM. `Cc1nc2ccc(C(=O)Nc3cnn(Cc4c(C)noc4C)c3)cc2o1` [Example 4-83, N-(1-((3,5-dimethylisoxazol-4-yl)methyl)-1H-pyrazol-4-yl)-2-methylbenzo[d]oxazole-6-carboxamide] was tested, and the IC50 was 0.7 µM. In the case of `COc1cc(C(=O)Nc2cnn(Cc3c(C)noc3C)c2)ccc1O` [Example 4-20, N-(1-((3,5-dimethylisoxazol-4-yl)methyl)-1H-pyrazol-4-yl)-4-hydroxy-3-methoxybenzamide], the IC50 is reported as 0.48 µM. `CNc1cnn(Cc2c(C)noc2C)c1` [Example 4-96, 1-((3,5-dimethylisoxazol-4-yl)methyl)-N-methyl-1H-pyrazol-4-amine] gave an IC50 of 8.76 µM. Compound `Cc1ccc(C(=O)Nc2cnn(Cc3c(C)noc3C)c2)o1` [Example 4-54, N-(1-((3,5-dimethylisoxazol-4-yl)methyl)-1H-pyrazol-4-yl)-5-methylfuran-2-carboxamide] has an IC50 of 3.19 µM. `COc1cccc(C(=O)Nc2cnn(Cc3c(C)noc3C)c2)c1OC` [Example 4-25, N-(1-((3,5-dimethylisoxazol-4-yl)methyl)-1H-pyrazol-4-yl)-2,3-dimethoxybenzamide] gave an IC50 of 0.61 µM. In the case of `CCC(C)CC(=O)Nc1cnn(Cc2c(C)noc2C)c1` (stereo not drawn) [Example 4-60, N-(1-((3,5-dimethylisoxazol-4-yl)methyl)-1H-pyrazol-4-yl)-3-methylpentanamide], the IC50 is reported as 1.94 µM.

Same assay, conditions: read-out: IC50 on hT2R8 bitter receptor
`COc1cccc(C(=O)Nc2nnn(Cc3c(C)noc3C)n2)c1` [Example 10-39, N-(2-((3,5-dimethylisoxazol-4-yl)methyl)-2H-tetrazol-5-yl)-3-methoxybenzamide] showed an IC50 of 1.87 µM. Work on `Cc1noc(C)c1Cn1cc(N2C(=O)NC(COCc3ccccc3)C2=O)cn1` (stereo not drawn) [Example 10-47, 5-(benzyloxymethyl)-3-(1-((3,5-dimethylisoxazol-4-yl)methyl)-1H-pyrazol-4-yl)imidazolidine-2,4-dione] yielded an IC50 of 0.76 µM. With `COc1ccc(CN2C(=O)N(c3cnn(Cc4c(C)noc4C)c3)C(=O)C2(C)C)cc1OC` [Example 12-30, 1-(3,4-dimethoxybenzyl)-3-(1-((3,5-dimethylisoxazol-4-yl)methyl)-1H-pyrazol-4-yl)-5,5-dimethylimidazolidine-2,4-dione] the IC50 was 0.08 µM. Work on `COc1cc(C(=O)Nc2cnn(Cc3c(C)noc3C)c2)cc2c1OCO2` [Example 4-92, N-(1-((3,5-dimethylisoxazol-4-yl)methyl)-1H-pyrazol-4-yl)-7-methoxybenzo[d][1,3]dioxole-5-carboxamide] yielded an IC50 of 0.7 µM. With `Cc1noc(C)c1Cn1cc(NC(=O)CC(C)c2ccccc2)cn1` (stereo not drawn) [Example 4-12, N-(1-((3,5-dimethylisoxazol-4-yl)methyl)-1H-pyrazol-4-yl)-3-phenylbutanamide] the IC50 was 0.28 µM. Work on `COc1cccc(CC2NC(=O)N(c3cnn(Cc4c(C)noc4C)c3)C2=O)c1` (stereo not drawn) [Example 10-56, 3-(1-((3,5-dimethylisoxazol-4-yl)methyl)-1H-pyrazol-4-yl)-5-(3-methoxybenzyl)imidazolidine-2,4-dione] yielded an IC50 of 0.13 µM.

Same assay, conditions: table after Example 10-97; read-out: hT2R8 IC50
Work on `Cc1noc(C)c1Cn1cc(N2C(=O)NC(COCc3ccccc3)C2=O)cn1` (stereo not drawn) [Example 10-47, 5-(benzyloxymethyl)-3-(1-((3,5-dimethylisoxazol-4-yl)methyl)-1H-pyrazol-4-yl)imidazolidine-2,4-dione] yielded an IC50 of 0.766 µM. Compound `Cc1cccc(CN2CC(=O)N(c3cnn(Cc4c(C)noc4C)c3)C2=O)c1` [Example 10-26, 3-(1-((3,5-dimethylisoxazol-4-yl)methyl)-1H-pyrazol-4-yl)-1-(3-methylbenzyl)imidazolidine-2,4-dione] has an IC50 of 0.019 µM. `Cc1noc(C)c1Cn1cc(N2C(=O)CN(Cc3cccc(C=O)c3)C2=O)cn1` [Example 10-24, 3-((3-(1-((3,5-dimethylisoxazol-4-yl)methyl)-1H-pyrazol-4-yl)-2,4-dioxoimidazolidin-1-yl)methyl)benzaldehyde] was tested, and the IC50 was 0.201 µM. With `Cc1noc(C)c1Cn1cc(N2C(=O)CN(Cc3ccc(O)cc3)C2=O)cn1` [Example 10-12, 3-(1-((3,5-dimethylisoxazol-4-yl)methyl)-1H-pyrazol-4-yl)-1-(4-hydroxybenzyl)imidazolidine-2,4-dione] the IC50 was 0.043 µM. For `COc1cccc(CC2NC(=O)N(c3cnn(Cc4c(C)noc4C)c3)C2=O)c1` (stereo not drawn) [Example 10-56, 3-(1-((3,5-dimethylisoxazol-4-yl)methyl)-1H-pyrazol-4-yl)-5-(3-methoxybenzyl)imidazolidine-2,4-dione], the IC50 was 0.131 µM.

Same assay, conditions: table after Example 12-37; read-out: hT2R8 IC50
Work on `Cc1noc(C)c1Cn1cc(N2C(=O)N(CCc3ccccc3)C(C)(C)C2=O)cn1` [Example 12-56, 3-(1-((3,5-dimethylisoxazol-4-yl)methyl)-1H-pyrazol-4-yl)-5,5-dimethyl-1-phenethylimidazolidine-2,4-dione] yielded an IC50 of 0.23 µM. Compound `COc1ccc(CN2C(=O)N(c3cnn(Cc4c(C)noc4C)c3)C(=O)C2(C)C)cc1C` [Example 12-76, 3-(1-((3,5-dimethylisoxazol-4-yl)methyl)-1H-pyrazol-4-yl)-1-(4-methoxy-3-methylbenzyl)-5,5-dimethylimidazolidine-2,4-dione] has an IC50 of 0.54 µM. Compound `Cc1noc(C)c1Cn1cc(N2C(=O)N(Cc3ccc(CO)cc3)C(C)(C)C2=O)cn1` [Example 12-88, 3-(1-((3,5-dimethylisoxazol-4-yl)methyl)-1H-pyrazol-4-yl)-1-(4-(hydroxymethyl)benzyl)-5,5-dimethylimidazolidine-2,4-dione] has an IC50 of 0.36 µM. In the case of `Cc1noc(C)c1Cn1cc(N2C(=O)N(CCc3ccc(F)cc3)C(C)(C)C2=O)cn1` [Example 12-69, 3-(1-((3,5-dimethylisoxazol-4-yl)methyl)-1H-pyrazol-4-yl)-1-(4-fluorophenethyl)-5,5-dimethylimidazolidine-2,4-dione], the IC50 is reported as 0.33 µM.

Same assay, conditions: unit uM; read-out: IC50 on hT2R08 bitter receptor
Work on `Cc1cccc(CN2CC(=O)N(c3cnn(Cc4c(C)noc4C)c3)C2=O)c1` [Example 10-26, 3-(1-((3,5-dimethylisoxazol-4-yl)methyl)-1H-pyrazol-4-yl)-1-(3-methylbenzyl)imidazolidine-2,4-dione] yielded an IC50 of 0.02 µM. `Cc1noc(C)c1Cn1cc(N2C(=O)CN(Cc3cccc(C=O)c3)C2=O)cn1` [Example 10-24, 3-((3-(1-((3,5-dimethylisoxazol-4-yl)methyl)-1H-pyrazol-4-yl)-2,4-dioxoimidazolidin-1-yl)methyl)benzaldehyde] was tested, and the IC50 was 0.2 µM. Compound `Cc1noc(C)c1Cn1cc(N2C(=O)CN(Cc3ccc(O)cc3)C2=O)cn1` [Example 10-12, 3-(1-((3,5-dimethylisoxazol-4-yl)methyl)-1H-pyrazol-4-yl)-1-(4-hydroxybenzyl)imidazolidine-2,4-dione] has an IC50 of 0.06 µM.

What follows are compounds tested against hT2R14 (Homo sapiens (Human), UniProt Q9NYV8) (assay: hT2R14 antagonist high-throughput FLIPR assay, stable cell line with G16g44, agonist aristolochic acid). Conditions: Table C; read-out: hT2R14 IC50.
hT2R14, sequence (Q9NYV8 whole entry): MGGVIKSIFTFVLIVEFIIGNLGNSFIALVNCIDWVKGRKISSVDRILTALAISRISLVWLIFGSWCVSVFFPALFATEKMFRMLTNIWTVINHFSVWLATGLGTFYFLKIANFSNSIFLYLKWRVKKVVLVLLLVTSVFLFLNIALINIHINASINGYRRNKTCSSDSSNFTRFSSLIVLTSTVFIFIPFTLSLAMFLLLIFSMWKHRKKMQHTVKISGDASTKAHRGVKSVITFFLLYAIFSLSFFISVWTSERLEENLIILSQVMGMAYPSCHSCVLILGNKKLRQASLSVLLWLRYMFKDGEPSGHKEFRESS
Format: cell-based
Description: The inventors also used the automated fluorimetric […] system FLIPR using a slightly different protocol. A HEK293 cell line stably expressing G16gust44 was transfected with a hT2R expression plasmid, 24 hours later, the cells are loaded and analyzed on FLIPR.
After a ligand is identified for a particular hT2R, a HEK293 cell line stably expressing both the hT2R and G16gust44 are generated, facilitating future screening assays to identify other ligands that activate the particular hT2R or which modulate (block or enhance) the activation of this hT2R by another bitter ligand such as a bitter compound contained in coffee. This avoids the need for transient transfection.
To identify antagonists, cell lines stably expressing hT2R8 and hT2R14, respectively, together with the promiscuous chimeric G16g44 protein were generated as described in previous patent applications. A high-throughput assay was established using the stable cell lines and FLIPR (Fluorescent Imaging Plate Reader). An agonist of hT2R8 or hT2R14 was used to activate the receptors up to 70-80% of their respective maximal activity. For hT2R8, the agonist used was andrographolide (200 […]); for hT2R14, it was aristolochic acid (3 μM). To identify antagonists, compounds with diverse chemical structures were added together with the agonist.
`COc1ccc(C2Cc3ccccc3CN2S(=O)(=O)c2ccc(C(=O)O)cc2)cc1` (stereo not drawn) [Example 5-161, 4-(3-(4-methoxyphenyl)-3,4-dihydroisoquinolin-2(1H)-ylsulfonyl)benzoic acid] showed an IC50 of 6270 nM. Work on `O=C(O)c1ccc(S(=O)(=O)N(Cc2ccccc2)Cc2ccc(F)cc2)cc1` [Example 5-131, 4-(N-benzyl-N-(4-fluorobenzyl)sulfamoyl)benzoic acid] yielded an IC50 of 8280 nM. Compound `CCOC(=O)C1CCC(CN(Cc2cccc(Br)c2)S(=O)(=O)c2ccc3c(c2)OCCO3)CC1` (stereo not drawn) [Example 5-116, ethyl 4-((N-(3-bromobenzyl)-2,3-dihydrobenzo[b][1,4]dioxine-6-sulfonamido)methyl) cyclohexanecarboxylate] has an IC50 of 2570 nM. Work on `Cc1ccc(S(=O)(=O)N(Cc2ccc(C#N)cc2)CC2CCC(C(=O)O)CC2)cc1` (stereo not drawn) [Example 5-127, 4-((N-(4-cyanobenzyl)-4-methylphenylsulfonamido)methyl) cyclohexanecarboxylic acid] yielded an IC50 of 499 nM. `COc1ccc(CN(Cc2ccccc2)S(=O)(=O)c2ccc(C(=O)O)cc2)cn1` [Example 5-145, 4-(N-benzyl-N-((6-methoxypyridin-3-yl)methyl)sulfamoyl)benzoic acid] showed an IC50 of 3260 nM. Work on `O=C(O)c1ccc(S(=O)(=O)N(Cc2ccccc2)Cc2ccc(Cl)cc2)cc1` [Example 5-137, 4-(N-benzyl-N-(4-chlorobenzyl)sulfamoyl)benzoic acid] yielded an IC50 of 3980 nM.

Same assay, conditions: Table D; read-out: hT2R14 IC50
For `Cc1c(F)cccc1NS(=O)(=O)c1ccc2c(c1)c(=O)n(C)c(=O)n2C` [Example 6-18, N-(3-fluoro-2-methylphenyl)-1,3-dimethyl-2,4-dioxo-1,2,3,4-tetrahydroquinazoline-6-sulfonamide], the IC50 was 935 nM. With `CCOC(=O)N1CCN(C(=O)CSc2nc(CC)nc3c2c(=O)n(C)c(=O)n3C)CC1` [Example 6-27, ethyl 4-(2-(2-ethyl-6,8-dimethyl-5,7-dioxo-5,6,7,8-tetrahydropyrimido[4,5-d]pyrimidin-4-ylthio)acetyl)piperazine-1-carboxylate] the IC50 was 763 nM.
